Test results: patent US9770026B2, “Substituted pyrimidine compound and uses thereof” (Shenyang Sinochem Agrochemicals R&D Co., Ltd., priority 2012, dated 2017)

Legend:
[1] = tested on: Diamond back moth; experiment: insecticidal activity against diamond back moth, airbrush spray; type: in vivo; conditions: for control (test results against diamond back moth): mortality after 72 hrs
Summary of the method: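 Airbrush leaf-disc spray test: both faces of 2 cm cabbage discs received 0.5 ml of test solution at 0.7 kg/cm^2. Solutions were made in acetone:methanol (1:1) and brought to concentration with 0.1% Tween 80 in water. Ten second-instar larvae per disc, triplicates, were held at 25° C and 60˜70% R.H., with mortality recorded at 72 hrs.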

[2] = tested on: corn rust; experiment: protectant activity in vivo against corn rust; conditions: for control effect against corn rust (%): protectant activity
[3] = tested on: Green peach aphids (Myzus Persicae Sulzer); experiment: bioactivity test against green peach aphid, airbrush foliar spray; type: in vivo; conditions: for Insecticidal activity against peach aphid (%): contrastive test; for control (test results against green peach aphid): death rate after 48 hrs
Summary of the method: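 Death rate was scored at 48 hrs, held at 25±1 C and 60±5% RH, following airbrush foliar spray (0.5 mL, 10 psi) onto cabbage leaf discs bearing about 15-30 aphids. Test solutions: compound dissolved in 1:1 acetone:methanol, brought to concentration with 0.1% tween 80 water.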

[4] = tested on: carmine spider mite; experiment: bioactivity test against carmine spider mite, airbrush spray; type: in vivo; conditions: for control against carmine spider mite: mortality after 72 hrs
Summary of the method: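 Broadbean seedlings infested with adult mites were sprayed with compound (acetone/methanol stock diluted in 0.1% Tween 80 water) by airbrush at 0.7 kg/cm^2, 0.5 ml. Three replicates were run. Mortality was scored after 72 hrs.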

[5] = tested on: armyworm; experiment: bioactivity test against armyworm, airbrush spray; type: in vivo; conditions: for control (test results against armyworm): mortality after 72 h
[6] = tested on: cucumber downy mildew; experiment: protectant activity in vivo against cucumber downy mildew; conditions: for control effect against cucumber downy mildew (%): protectant activity
[7] = tested on: wheat powdery mildew; experiment: protectant activity in vivo against wheat powdery mildew; conditions: for control effect against wheat powdery mildew (%): protectant activity

CCc1ncnc(NCCc2ccc(Oc3ccc(C#N)cc3F)cc2)c1Cl [II-482]
80%: Insecticidal activity against armyworm (%) ([5]; 10 mg/L)
98%: control effect against wheat powdery mildew (%) ([7]; 6.25 mg/L)
60%: Insecticidal activity against diamond back moth (%) ([1]; 10 mg/L)
93%: Insecticidal activity against carmine spider mite (% ) ([4]; 2.5 mg/L)
100%: Insecticidal activity against diamond back moth (%) ([1]; 100 mg/L) | Insecticidal activity against diamond back moth (%) ([1]; 600 mg/L) | control (test results against diamond back moth) ([1]; 100 ppm) | control (test results against diamond back moth) ([1]; 600 ppm) | control effect against corn rust (%) ([2]; 6.25 mg/L) | control effect against corn rust (%) ([2]; 25 mg/L) | control effect against corn rust (%) ([2]; 100 mg/L) | control effect against corn rust (%) ([2]; 400 mg/L) | protectant activity against corn rust in vivo ([2]; 6.25 ppm) | protectant activity against corn rust in vivo ([2]; 25 ppm) | protectant activity against corn rust in vivo ([2]; 100 ppm) | protectant activity against corn rust in vivo ([2]; 400 ppm) | Insecticidal activity against peach aphid (%) ([3]; 1.25 mg/L) | Insecticidal activity against peach aphid (%) ([3]; 2.5 mg/L) | Insecticidal activity against peach aphid (%) ([3]; 5 mg/L) | Insecticidal activity against peach aphid (%) ([3]; 10 mg/L) | Insecticidal activity against peach aphid (%) ([3]; 100 mg/L) | Insecticidal activity against peach aphid (%) ([3]; 600 mg/L) | control (test results against green peach aphid) ([3]; 2.5 ppm) | control (test results against green peach aphid) ([3]; 5 ppm) | control (test results against green peach aphid) ([3]; 10 ppm) | control (test results against green peach aphid) ([3]; 100 ppm) | control (test results against green peach aphid) ([3]; 600 ppm) | Insecticidal activity against carmine spider mite (% ) ([4]; 5 mg/L) | Insecticidal activity against carmine spider mite (% ) ([4]; 10 mg/L, contrastive test) | Insecticidal activity against carmine spider mite (% ) ([4]; 100 mg/L, contrastive test) | Insecticidal activity against carmine spider mite (% ) ([4]; 600 mg/L, contrastive test) | control against carmine spider mite ([4]; 5 ppm) | control against carmine spider mite ([4]; 10 ppm) | control against carmine spider mite ([4]; 100 ppm) | control against carmine spider mite ([4]; 600 ppm) | Insecticidal activity against armyworm (%) ([5]; 100 mg/L) | Insecticidal activity against armyworm (%) ([5]; 600 mg/L) | control (test results against armyworm) ([5]; 100 ppm) | control (test results against armyworm) ([5]; 600 ppm) | protectant activity against cucumber downy mildew in vivo ([6]; 25 ppm) | protectant activity against cucumber downy mildew in vivo ([6]; 50 ppm) | protectant activity against cucumber downy mildew in vivo ([6]; 100 ppm) | protectant activity against cucumber downy mildew in vivo ([6]; 400 ppm) | control effect against wheat powdery mildew (%) ([7]; 25 mg/L) | control effect against wheat powdery mildew (%) ([7]; 100 mg/L) | control effect against wheat powdery mildew (%) ([7]; 400 mg/L) | protectant activity against wheat powdery mildew in vivo ([7]; 25 ppm) | protectant activity against wheat powdery mildew in vivo ([7]; 100 ppm) | protectant activity against wheat powdery mildew in vivo ([7]; 400 ppm)

CCc1ncnc(NCCc2ccc(Oc3ccc(Cl)cc3)c(OC)c2)c1Cl [II-1965]
100%: control (test results against diamond back moth) ([1]; 600 ppm) | protectant activity against corn rust in vivo ([2]; 400 ppm) | Insecticidal activity against peach aphid (%) ([3]; 10 mg/L) | Insecticidal activity against peach aphid (%) ([3]; 100 mg/L) | Insecticidal activity against peach aphid (%) ([3]; 600 mg/L) | control (test results against green peach aphid) ([3]; 10 ppm) | control (test results against green peach aphid) ([3]; 100 ppm) | control (test results against green peach aphid) ([3]; 600 ppm) | control against carmine spider mite ([4]; 100 ppm) | control against carmine spider mite ([4]; 600 ppm) | control (test results against armyworm) ([5]; 600 ppm) | protectant activity against cucumber downy mildew in vivo ([6]; 400 ppm) | protectant activity against wheat powdery mildew in vivo ([7]; 400 ppm)

Cc1ncnc(NCCc2ccc(Oc3ccccc3)nc2)c1Cl [III-1]
100%: control (test results against diamond back moth) ([1]; 600 ppm) | protectant activity against corn rust in vivo ([2]; 400 ppm) | control (test results against green peach aphid) ([3]; 600 ppm) | control against carmine spider mite ([4]; 600 ppm) | control (test results against armyworm) ([5]; 600 ppm) | control effect against cucumber downy mildew (%) ([6]; 12.5 mg/L) | control effect against cucumber downy mildew (%) ([6]; 25 mg/L) | control effect against cucumber downy mildew (%) ([6]; 50 mg/L) | control effect against cucumber downy mildew (%) ([6]; 100 mg/L) | control effect against cucumber downy mildew (%) ([6]; 400 mg/L) | protectant activity against cucumber downy mildew in vivo ([6]; 12.5 ppm) | protectant activity against cucumber downy mildew in vivo ([6]; 25 ppm) | protectant activity against cucumber downy mildew in vivo ([6]; 50 ppm) | protectant activity against cucumber downy mildew in vivo ([6]; 100 ppm) | protectant activity against cucumber downy mildew in vivo ([6]; 400 ppm) | control effect against wheat powdery mildew (%) ([7]; 400 mg/L) | protectant activity against wheat powdery mildew in vivo ([7]; 400 ppm)
98%: control effect against wheat powdery mildew (%) ([7]; 6.25 mg/L) | control effect against wheat powdery mildew (%) ([7]; 25 mg/L) | control effect against wheat powdery mildew (%) ([7]; 100 mg/L)

Cc1ccc(Oc2ccc(CCNc3ncnc(C)c3Cl)cn2)cc1 [III-16]
100%: control (test results against diamond back moth) ([1]; 600 ppm) | protectant activity against corn rust in vivo ([2]; 400 ppm) | control (test results against green peach aphid) ([3]; 100 ppm) | control (test results against green peach aphid) ([3]; 600 ppm) | Insecticidal activity against carmine spider mite (% ) ([4]; 100 mg/L, contrastive test) | Insecticidal activity against carmine spider mite (% ) ([4]; 600 mg/L, contrastive test) | control against carmine spider mite ([4]; 100 ppm) | control against carmine spider mite ([4]; 600 ppm) | control (test results against armyworm) ([5]; 600 ppm) | control effect against cucumber downy mildew (%) ([6]; 6.25 mg/L) | control effect against cucumber downy mildew (%) ([6]; 12.5 mg/L) | control effect against cucumber downy mildew (%) ([6]; 25 mg/L) | control effect against cucumber downy mildew (%) ([6]; 50 mg/L) | control effect against cucumber downy mildew (%) ([6]; 100 mg/L) | control effect against cucumber downy mildew (%) ([6]; 400 mg/L) | protectant activity against cucumber downy mildew in vivo ([6]; 6.25 ppm) | protectant activity against cucumber downy mildew in vivo ([6]; 12.5 ppm) | protectant activity against cucumber downy mildew in vivo ([6]; 25 ppm) | protectant activity against cucumber downy mildew in vivo ([6]; 50 ppm) | protectant activity against cucumber downy mildew in vivo ([6]; 100 ppm) | protectant activity against cucumber downy mildew in vivo ([6]; 400 ppm) | protectant activity against wheat powdery mildew in vivo ([7]; 400 ppm)

COc1ccc(Oc2ccc(CCNc3ncnc(C)c3Cl)cn2)cc1 [III-19]
95%: control effect against cucumber downy mildew (%) ([6]; 6.25 mg/L)
98%: control effect against cucumber downy mildew (%) ([6]; 12.5 mg/L)
100%: control (test results against diamond back moth) ([1]; 600 ppm) | protectant activity against corn rust in vivo ([2]; 400 ppm) | control (test results against green peach aphid) ([3]; 600 ppm) | control against carmine spider mite ([4]; 600 ppm) | control (test results against armyworm) ([5]; 600 ppm) | control effect against cucumber downy mildew (%) ([6]; 25 mg/L) | control effect against cucumber downy mildew (%) ([6]; 50 mg/L) | control effect against cucumber downy mildew (%) ([6]; 100 mg/L) | control effect against cucumber downy mildew (%) ([6]; 400 mg/L) | protectant activity against cucumber downy mildew in vivo ([6]; 25 ppm) | protectant activity against cucumber downy mildew in vivo ([6]; 50 ppm) | protectant activity against cucumber downy mildew in vivo ([6]; 100 ppm) | protectant activity against cucumber downy mildew in vivo ([6]; 400 ppm) | protectant activity against wheat powdery mildew in vivo ([7]; 400 ppm)

CCc1ncnc(NCCc2ccc(Oc3ccccc3)nc2)c1Cl [III-181]
100%: control (test results against diamond back moth) ([1]; 600 ppm) | protectant activity against corn rust in vivo ([2]; 400 ppm) | Insecticidal activity against peach aphid (%) ([3]; 10 mg/L) | Insecticidal activity against peach aphid (%) ([3]; 100 mg/L) | Insecticidal activity against peach aphid (%) ([3]; 600 mg/L) | control (test results against green peach aphid) ([3]; 10 ppm) | control (test results against green peach aphid) ([3]; 100 ppm) | control (test results against green peach aphid) ([3]; 600 ppm) | Insecticidal activity against carmine spider mite (% ) ([4]; 100 mg/L, contrastive test) | Insecticidal activity against carmine spider mite (% ) ([4]; 600 mg/L, contrastive test) | control against carmine spider mite ([4]; 100 ppm) | control against carmine spider mite ([4]; 600 ppm) | control (test results against armyworm) ([5]; 600 ppm) | control effect against cucumber downy mildew (%) ([6]; 25 mg/L) | control effect against cucumber downy mildew (%) ([6]; 50 mg/L) | control effect against cucumber downy mildew (%) ([6]; 100 mg/L) | control effect against cucumber downy mildew (%) ([6]; 400 mg/L) | protectant activity against cucumber downy mildew in vivo ([6]; 25 ppm) | protectant activity against cucumber downy mildew in vivo ([6]; 50 ppm) | protectant activity against cucumber downy mildew in vivo ([6]; 100 ppm) | protectant activity against cucumber downy mildew in vivo ([6]; 400 ppm) | protectant activity against wheat powdery mildew in vivo ([7]; 400 ppm)

CCc1ncnc(NCCc2ccc(Oc3ccc(C)cc3)nc2)c1Cl [III-196]
85%: control effect against cucumber downy mildew (%) ([6]; 6.25 mg/L) | control effect against cucumber downy mildew (%) ([6]; 12.5 mg/L)
100%: Insecticidal activity against diamond back moth (%) ([1]; 100 mg/L) | Insecticidal activity against diamond back moth (%) ([1]; 600 mg/L) | control (test results against diamond back moth) ([1]; 100 ppm) | control (test results against diamond back moth) ([1]; 600 ppm) | protectant activity against corn rust in vivo ([2]; 400 ppm) | control (test results against green peach aphid) ([3]; 100 ppm) | control (test results against green peach aphid) ([3]; 600 ppm) | control against carmine spider mite ([4]; 600 ppm) | control (test results against armyworm) ([5]; 600 ppm) | control effect against cucumber downy mildew (%) ([6]; 25 mg/L) | control effect against cucumber downy mildew (%) ([6]; 50 mg/L) | control effect against cucumber downy mildew (%) ([6]; 100 mg/L) | control effect against cucumber downy mildew (%) ([6]; 400 mg/L) | protectant activity against cucumber downy mildew in vivo ([6]; 25 ppm) | protectant activity against cucumber downy mildew in vivo ([6]; 50 ppm) | protectant activity against cucumber downy mildew in vivo ([6]; 100 ppm) | protectant activity against cucumber downy mildew in vivo ([6]; 400 ppm) | protectant activity against wheat powdery mildew in vivo ([7]; 400 ppm)
